From patent US20250312499A1, “KISSPEPTIN RECEPTOR (KISS1R) TARGETED THERAPEUTICS AND USES THEREOF” (priority 2024, published 2025) come the findings set out here.

The structures appear in SMILES notation. Square brackets hold non-standard residues; d marks the D form. Peptide text beside a SMILES is read from it. * marks the point of attachment. DOTA = O=C(O)CN1CCN(CC(=O)O)CCN(CC(=O)*)CCN(CC(=O)O)CC1; Gly(N-(3-F-4-Me-benzyl)) = Cc1ccc(CNCC(=O)*)cc1F; Butanoyl(4-(4-MePh)) = Cc1ccc(CCCC(=O)*)cc1; Api(1-amidino) = N=C(N)N1CCC(N)(C(=O)O)CC1; Api = NC1(C(=O)O)CCNCC1; Ahx = NCCCCCC(=O)O; azaGly = NNC(=O)O; βAla = NCCC(=O)O; Sar = CNCC(=O)O

For the assay, the target named is human kisspeptin receptor (Homo sapiens (Human), UniProt Q969F8). In words: Human KISS1R binding assay (membrane competition binding). The note with it: 90 min at room temperature; competition with 0.2 nM [125I]-metastin (45-54); Flp-In T-Rex 293 kisspeptin membranes; metal complexes nonradioactive Ga, In, Lu; read-out: hKiSSR Binding Ki (90 min). As for the experimental part: Crude membrane fractions are prepared from Flp-In T-Rex 293 (Thermo Fisher) cell line expressing the human kisspeptin receptor. The cells are grown to 85-100% confluence on standard tissue culture dishes in Dulbecco's Modified Eagles Medium (DMEM) (Corning) supplemented with 10% FBS (Gemini), 1% penicillin-streptomycin-glutamine (Gibco), 500 μg/mL hygromycin, and 15 μg/mL blastacidin. 48 hrs prior to preparing membranes 10 μg/ml of tetracycline is added to the culture media to induce receptor expression. To prepare membranes, cells are scraped and collected in 1× Dulbecco's phosphate buffered saline (Corning) and then pelleted at 1000 RPMs. The cell pellet is reconstituted in membrane preparation buffer (20 mM HEPES, 6 mM MgCl2 and 1 mM EGTA, protease inhibitor tablets (Pierce), pH 7.4) and placed in a cell disruption vessel (Parr Instrument company) at 1000 PSI for 30 min on ice. The pressurized contents are then released and spun down at 1000 RPMs and the supernatant is collected and further centrifuged at 15,000 RPMs to pellet the membranes. The membrane pellet is resuspended in membrane preparation buffer, snap frozen and stored at −80° C. for later use.
Sequence of human kisspeptin receptor (Q969F8 whole entry): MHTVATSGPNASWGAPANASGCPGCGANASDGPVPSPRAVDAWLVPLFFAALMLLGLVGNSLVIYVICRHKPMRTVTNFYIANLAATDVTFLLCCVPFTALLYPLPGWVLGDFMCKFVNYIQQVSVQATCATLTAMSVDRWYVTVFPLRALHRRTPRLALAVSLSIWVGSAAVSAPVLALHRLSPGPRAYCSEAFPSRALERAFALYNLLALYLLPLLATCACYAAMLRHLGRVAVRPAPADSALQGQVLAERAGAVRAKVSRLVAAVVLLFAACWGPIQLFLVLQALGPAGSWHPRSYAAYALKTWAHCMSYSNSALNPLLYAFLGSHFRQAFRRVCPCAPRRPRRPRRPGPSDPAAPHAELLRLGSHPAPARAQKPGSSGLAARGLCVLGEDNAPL
The human kisspeptin membrane binding assay utilizes the following components: radiolabel [^125I]-metastin (45-54) (human) (Perkinhmer), crude Flp-In T-Rex 293 kisspeptin membranes, and competing small molecule and peptide ligands. The assay is initiated by combining in assay buffer (50 mM TrisHCl, 5 mM MgCl2, 2 mM EGTA, 10 mM CaCl2, 0.1% BSA, pH 7.4) a dose response of competing ligand (final concentrations are typically 0-10,000 nM), 5-10 μg of Flp-In T-Rex 293 kisspeptin membranes, and 0.2 n M [^125I]-metastin (45-54) in a 96-well assay plate and allowed to incubate 90 minutes at room temperature. Assay contents are then filtered through unifilter CF/C: microplates (PerkinElmer) pre-soaked with 0.5% BSA and washed with 9×400 μL of cold wash buffer (10 mM HEPES, 500 mM NaCl, 0.1% Tween-20, pH7.4). Assay plates are read using a Microbeta^2 (PerkinElmer) and Ki values for compounds are determined using a GraphPad Prism 9.3 non-linear regression analysis.
With `Cc1ccc(CNCC(=O)N2CCC(NC(=O)[C@H](CC(C)C)NC(=O)NNC(=O)[C@H](Cc3ccccc3)NC(=O)[C@@H](NC(=O)[C@H](CC(N)=O)NC(=O)[C@@H](Cc3c[nH]c4ccccc34)NC(=O)[C@@H](Cc3ccc(O)cc3)NC(=O)CCCCCNC(=O)CN3CCN(CC(=O)O)CCN(CC(=O)O)CCN(CC(=O)O)CC3)[C@@H](C)O)(C(=O)N[C@@H](Cc3c[nH]c4ccccc34)C(N)=O)CC2)cc1F` [Compound 1] ({DOTA-Ahx}-[dY][dW]NTF[azaGly]L[Api](Gly(N-(3-F-4-Me-benzyl)))W-NH2), the Ki (in general, a measure of affinity in units of concentration, obtained from inhibition or displacement) is less than 10 nM.

Consider `Cc1ccc(CNCC(=O)N2CCC(NC(=O)[C@H](CC(C)C)NC(=O)NNC(=O)[C@H](Cc3ccccc3)NC(=O)CCCCCNC(=O)CN3CCN(CC(=O)O)CCN(CC(=O)O)CCN(CC(=O)O)CC3)(C(=O)N[C@@H](Cc3c[nH]c4ccccc34)C(N)=O)CC2)cc1F` [Compound 2] ({DOTA-Ahx}-F[azaGly]L[Api](Gly(N-(3-F-4-Me-benzyl)))W-NH2), for which the Ki was less than 10 nM.

`CC(C)C[C@H](NC(=O)CNC(=O)[C@H](Cc1ccccc1)NC(=O)CCCCCNC(=O)CN1CCN(CC(=O)O)CCN(CC(=O)O)CCN(CC(=O)O)CC1)C(=O)NC1(C(=O)N[C@@H](Cc2c[nH]c3ccccc23)C(N)=O)CCN(C(=N)N)CC1` [Compound 3] ({DOTA-Ahx}-FGL[Api(1-amidino)]W-NH2): the Ki was more than 100 nM.

`CC(C)C[C@H](NC(=O)NNC(=O)[C@H](Cc1ccccc1)NC(=O)CCCCCNC(=O)CN1CCN(CC(=O)O)CCN(CC(=O)O)CCN(CC(=O)O)CC1)C(=O)NC1(C(=O)N[C@@H](Cc2c[nH]c3ccccc23)C(N)=O)CCN(C(=N)N)CC1` [Compound 5] ({DOTA-Ahx}-F[azaGly]L[Api(1-amidino)]W-NH2): the Ki was in the range of 10 to 100 nM.

As to `CC(C)C[C@H](NC(=O)NNC(=O)[C@H](Cc1ccccc1)NC(=O)[C@@H](NC(=O)[C@H](CC(N)=O)NC(=O)[C@@H](Cc1c[nH]c2ccccc12)NC(=O)[C@@H](Cc1ccc(O)cc1)NC(=O)CCCCCNC(=O)CN1CCN(CC(=O)O)CCN(CC(=O)O)CCN(CC(=O)O)CC1)[C@@H](C)O)C(=O)NC1(C(=O)N[C@@H](Cc2c[nH]c3ccccc23)C(N)=O)CCN(C(=N)N)CC1` [Compound 6] ({DOTA-Ahx}-[dY][dW]NTF[azaGly]L[Api(1-amidino)]W-NH2), the Ki was less than 10 nM.

On to `Cc1ccc(CCCC(=O)N2CCC(NC(=O)[C@H](CC(C)C)NC(=O)NNC(=O)[C@H](Cc3ccccc3)NC(=O)CCCCCNC(=O)CN3CCN(CC(=O)O)CCN(CC(=O)O)CCN(CC(=O)O)CC3)(C(=O)N[C@@H](Cc3c[nH]c4ccccc34)C(N)=O)CC2)cc1` [Compound 7] ({DOTA-Ahx}-F[azaGly]L[Api](Butanoyl(4-(4-MePh)))W-NH2), for which the Ki lay within 10 to 100 nM.

For the compound `Cc1ccc(CNCC(=O)N2CCC(NC(=O)[C@H](CC(C)C)SCCNC(=O)[C@H](Cc3ccccc3)NC(=O)CCCCCNC(=O)CN3CCN(CC(=O)O)CCN(CC(=O)O)CCN(CC(=O)O)CC3)(C(=O)N[C@@H](Cc3c[nH]c4ccccc34)C(N)=O)CC2)cc1F` [Compound 8], the Ki was less than 10 nM.

With `Cc1ccc(CNCC(=O)N2CCC(NC(=O)[C@H](CC(C)C)n3cc([C@H](Cc4ccccc4)NC(=O)CCCCCNC(=O)CN4CCN(CC(=O)O)CCN(CC(=O)O)CCN(CC(=O)O)CC4)nn3)(C(=O)N[C@@H](Cc3c[nH]c4ccccc34)C(N)=O)CC2)cc1F` [Compound 9], the Ki is less than 10 nM.

As for `Cc1ccc(CNCC(=O)N2CCC(NC(=O)[C@H](CC(C)C)NC(=O)CNC(=O)[C@H](Cc3ccccc3)NC(=O)CCCCCNC(=O)CN3CCN(CC(=O)O)CCN(CC(=O)O)CCN(CC(=O)O)CC3)(C(=O)N[C@@H](Cc3c[nH]c4ccccc34)C(N)=O)CC2)cc1F` [Compound 10] ({DOTA-Ahx}-FGL[Api](Gly(N-(3-F-4-Me-benzyl)))W-NH2), the Ki was less than 10 nM.

As to `Cc1ccc(CNCC(=O)N2CCC(NC(=O)[C@H](CC(C)C)NC(=O)CNC(=O)[C@H](Cc3ccccc3)NC(=O)CCCCCNC(=O)CN3CCN(CC(=O)O)CCN(CC(=O)O)CCN(CC(=O)O)CC3)(C(=O)N[C@@H](Cc3ccc(O)cc3)C(N)=O)CC2)cc1F` [Compound 11] ({DOTA-Ahx}-FGL[Api](Gly(N-(3-F-4-Me-benzyl)))Y-NH2), the Ki was less than 10 nM.

In the case of `Cc1ccc(CNCC(=O)N2CCC(NC(=O)[C@H](CC(C)C)NC(=O)CN(C)C(=O)[C@H](Cc3ccccc3)NC(=O)CCCCCNC(=O)CN3CCN(CC(=O)O)CCN(CC(=O)O)CCN(CC(=O)O)CC3)(C(=O)N[C@@H](Cc3c[nH]c4ccccc34)C(N)=O)CC2)cc1F` [Compound 12] ({DOTA-Ahx}-F[Sar]L[Api](Gly(N-(3-F-4-Me-benzyl)))W-NH2), the Ki was 10 to 100 nM.

On to `Cc1ccc(CNCC(=O)N2CCC(NC(=O)[C@H](CC(C)C)NC(=O)NNC(=O)[C@H](Cc3ccccc3)NC(=O)[C@@H](C)NC(=O)[C@@H](C)NC(=O)[C@@H](C)NC(=O)[C@@H](C)NC(=O)[C@@H](C)NC(=O)CCCCCNC(=O)CN3CCN(CC(=O)O)CCN(CC(=O)O)CCN(CC(=O)O)CC3)(C(=O)N[C@@H](Cc3c[nH]c4ccccc34)C(N)=O)CC2)cc1F` [Compound 13] ({DOTA-Ahx}-[dA][dA][dA][dA][dA]F[azaGly]L[Api](Gly(N-(3-F-4-Me-benzyl)))W-NH2), for which the Ki lay within 10 to 100 nM.

For the compound `Cc1ccc(CNCC(=O)N2CCC(NC(=O)[C@H](CC(C)C)NC(=O)NNC(=O)[C@H](Cc3ccccc3)NC(=O)[C@@H](CC(N)=O)NC(=O)[C@@H](CC(N)=O)NC(=O)[C@@H](CC(N)=O)NC(=O)[C@@H](CC(N)=O)NC(=O)[C@@H](CC(N)=O)NC(=O)CCNC(=O)CN3CCN(CC(=O)O)CCN(CC(=O)O)CCN(CC(=O)O)CC3)(C(=O)N[C@@H](Cc3c[nH]c4ccccc34)C(N)=O)CC2)cc1F` [Compound 14] ({DOTA-βAla}-[dN][dN][dN][dN][dN]F[azaGly]L[Api](Gly(N-(3-F-4-Me-benzyl)))W-NH2), the Ki is 10 to 100 nM.

`Cc1ccc(CNCC(=O)N2CCC(NC(=O)[C@H](CC(C)C)NC(=O)NNC(=O)[C@H](Cc3ccccc3)NC(=O)[C@@H](CC(N)=O)NC(=O)[C@@H](CCC(=O)O)NC(=O)[C@@H](CCC(=O)O)NC(=O)[C@@H](CC(N)=O)NC(=O)[C@@H](CC(N)=O)NC(=O)CCNC(=O)CN3CCN(CC(=O)O)CCN(CC(=O)O)CCN(CC(=O)O)CC3)(C(=O)N[C@@H](Cc3c[nH]c4ccccc34)C(N)=O)CC2)cc1F` [Compound 15] ({DOTA-βAla}-[dN][dN][dE][dE][dN]F[azaGly]L[Api](Gly(N-(3-F-4-Me-benzyl)))W-NH2): the Ki is more than 100 nM.

For `Cc1ccc(CNCC(=O)N2CCC(NC(=O)[C@H](CC(C)C)NC(=O)NNC(=O)[C@H](Cc3ccccc3)NC(=O)[C@@H](CC(N)=O)NC(=O)[C@@H](CCC(=O)O)NC(=O)[C@@H](CCCCN)NC(=O)[C@@H](CC(N)=O)NC(=O)[C@@H](CC(N)=O)NC(=O)CCNC(=O)CN3CCN(CC(=O)O)CCN(CC(=O)O)CCN(CC(=O)O)CC3)(C(=O)N[C@@H](Cc3c[nH]c4ccccc34)C(N)=O)CC2)cc1F` [Compound 16] ({DOTA-βAla}-[dN][dN][dK][dE][dN]F[azaGly]L[Api](Gly(N-(3-F-4-Me-benzyl)))W-NH2), the Ki is more than 100 nM.

Turning to `Cc1ccc(CNCC(=O)N2CCC(NC(=O)[C@H](CC(C)C)NC(=O)NNC(=O)[C@H](Cc3ccccc3)NC(=O)CN(C)C(=O)CN(C)C(=O)CN3CCN(CC(=O)O)CCN(CC(=O)O)CCN(CC(=O)O)CC3)(C(=O)N[C@@H](Cc3c[nH]c4ccccc34)C(N)=O)CC2)cc1F` [Compound 17] ({DOTA}-[Sar][Sar]F[azaGly]L[Api](Gly(N-(3-F-4-Me-benzyl)))W-NH2), the Ki was less than 10 nM.

Take `Cc1ccc(CNCC(=O)N2CCC(NC(=O)[C@H](CC(C)C)NC(=O)NNC(=O)[C@H](Cc3ccccc3)NC(=O)[C@@H](CC(N)=O)NC(=O)[C@@H](CC(N)=O)NC(=O)CN3CCN(CC(=O)O)CCN(CC(=O)O)CCN(CC(=O)O)CC3)(C(=O)N[C@@H](Cc3c[nH]c4ccccc34)C(N)=O)CC2)cc1F` [Compound 18] ({DOTA}-[dN][dN]F[azaGly]L[Api](Gly(N-(3-F-4-Me-benzyl)))W-NH2): the Ki was in the range of 10 to 100 nM.

With `Cc1ccc(CNCC(=O)N2CCC(NC(=O)[C@H](CC(C)C)NC(=O)NNC(=O)[C@H](Cc3ccccc3)NC(=O)[C@@H](NC(=O)[C@H](CC(N)=O)NC(=O)[C@@H]3CCCN3C(=O)[C@@H](Cc3ccc(O)cc3)NC(=O)CCCCCNC(=O)CN3CCN(CC(=O)O)CCN(CC(=O)O)CCN(CC(=O)O)CC3)[C@@H](C)O)(C(=O)N[C@@H](Cc3c[nH]c4ccccc34)C(N)=O)CC2)cc1F` [Compound 20] ({DOTA-Ahx}-[dY]PNTF[azaGly]L[Api](Gly(N-(3-F-4-Me-benzyl)))W-NH2), the Ki is less than 10 nM.
